pIC50: −log10 of the molar value. Where a SMILES comes first, the peptide text is derived from it. Bridges are numbered along the chain shown (N, C = ends). [ ]: non-standard residue; d: D form. The star is where a group is joined. Phe(3-CF3) = N[C@@H](Cc1cccc(C(F)(F)F)c1)C(=O)O; Phe(4-COOH) = N[C@@H](Cc1ccc(C(=O)O)cc1)C(=O)O; Bip = N[C@@H](Cc1ccc(-c2ccccc2)cc1)C(=O)O; Phe(3-Cl) = N[C@@H](Cc1cccc(Cl)c1)C(=O)O; Phe(3-Me) = Cc1cccc(C[C@H](N)C(=O)O)c1; 4Pal = N[C@@H](Cc1ccncc1)C(=O)O; Cha = N[C@@H](CC1CCCCC1)C(=O)O; Cit = NC(=O)NCCC[C@H](N)C(=O)O; Carboxymethyl = O=C(O)C*; Orn = NCCC[C@H](N)C(=O)O; Dab = NCC[C@H](N)C(=O)O; Dap = NC[C@H](N)C(=O)O
Biological target: T1, human PD-1 / PD-L1-Ig binding on Jurkat cell line over-expressing human PD-1 (Jurkat-PD-1) (Homo sapiens, UniProt Q15116)
T1 construct: expressed in transfected cells; host or cells: Jurkat
Experiment: Jurkat-PD-1 Cell Binding High-Content Screening Assay (CBA)
Format: cell-based
Conditions: Jurkat HPD1_PDL1 IC50, Jurkat-PD-1 cells, PE-labeled PD-L1-Ig 20 nM final
In short: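 Binding of fluorescent PD-L1-Ig (phycoerythrin linked via the Ig tag, 20 nM final) to PD-1-overexpressing Jurkat cells was imaged after a 2 h, 37° C compound pretreatment and 1 hour ligand incubation.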

T1 sequence (Q15116 25-288): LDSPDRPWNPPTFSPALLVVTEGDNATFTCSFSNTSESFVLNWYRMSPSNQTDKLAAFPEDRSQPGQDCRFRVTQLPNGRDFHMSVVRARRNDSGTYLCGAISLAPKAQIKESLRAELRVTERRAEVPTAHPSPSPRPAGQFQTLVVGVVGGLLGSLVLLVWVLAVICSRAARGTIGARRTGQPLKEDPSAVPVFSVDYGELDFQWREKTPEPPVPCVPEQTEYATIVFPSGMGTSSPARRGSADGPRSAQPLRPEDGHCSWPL

Row | Structure (SMILES) | pIC50
1 | CC[C@H](C)[C@@H]1NC(=O)[C@H](Cc2ccc(-c3ccccc3)cc2)NC(=O)[C@H](C(C)C)NC(=O)[C@H](Cc2cccc(Cl)c2)NC(=O)[C@H](CC(=O)O)NC(=O)[C@H](Cc2ccc(C(=O)O)cc2)NC(=O)[C@H](Cc2ccncc2)NC(=O)CSC[C@@H](C(=O)N[C@@H](C)C(N)=O)NC(=O)[C@H]([C@@H](C)O)NC(=O)[C@H](C(C)C)NC(=O)[C@H](CC2CCCCC2)NC(=O)[C@H](CCN)NC(=O)[C@@H](CC(C)C)NC(=O)[C@H](CCCN)NC1=O [Compound 1558] | 7.80
2 | CC[C@H](C)[C@@H]1NC(=O)[C@H](Cc2ccc(-c3ccccc3)cc2)NC(=O)[C@H](C(C)C)NC(=O)[C@H](Cc2cccc(C(F)(F)F)c2)NC(=O)[C@H](CC(=O)O)NC(=O)[C@H](Cc2ccc(OCC(=O)O)cc2)NC(=O)[C@H](Cc2ccncc2)NC(=O)CSC[C@@H](C(=O)N[C@@H](C)C(N)=O)NC(=O)[C@H]([C@@H](C)O)NC(=O)[C@H](C(C)C)NC(=O)[C@H](CC2CCCCC2)NC(=O)[C@H](CCN)NC(=O)[C@@H](CC(C)C)NC(=O)[C@H](CCCN)NC1=O [Compound 1567] | 7.59
3 | CC[C@H](C)[C@@H]1NC(=O)[C@H](Cc2ccc(-c3ccccc3)cc2)NC(=O)[C@H](C(C)C)NC(=O)[C@H](Cc2cccc(Cl)c2)NC(=O)[C@H](CC(=O)O)NC(=O)[C@H](Cc2ccc(OCC(=O)O)cc2)NC(=O)[C@H](Cc2ccc(OCC(=O)O)cc2)NC(=O)CSC[C@@H](C(=O)N[C@@H](C)C(N)=O)NC(=O)[C@H]([C@@H](C)O)NC(=O)[C@H](C(C)C)NC(=O)[C@H](CC2CCCCC2)NC(=O)[C@H](CCN)NC(=O)[C@@H](CC(C)C)NC(=O)[C@H](CCCN)NC1=O [Compound 1568] | 7.61

Same assay, conditions: Jurkat-PD-1 cells, PE-labeled PD-L1-Ig 20 nM final; read-out: Jurkat HPD1_PDL1 IC50

Row | pIC50 | Structure (SMILES)
4 | 7.36 | CC[C@H](C)[C@@H]1NC(=O)[C@H](Cc2ccc(-c3ccccc3)cc2)NC(=O)[C@H](C(C)C)NC(=O)[C@H](Cc2cccc(C)c2)NC(=O)[C@H](CC(=O)O)NC(=O)[C@H](Cc2ccc(C(=O)O)cc2)NC(=O)[C@H](Cc2ccc(OCC(=O)O)cc2)NC(=O)CSC[C@@H](C(N)=O)NC(=O)[C@H]([C@@H](C)O)NC(=O)[C@H](C(C)C)NC(=O)[C@H](CC(C)C)NC(=O)[C@H](CCN)NC(=O)[C@@H](CC(C)C)NC(=O)[C@H](CCCN)NC1=O [Compound 1555] ({CH2CO}-Y(Carboxymethyl)[Phe(4-COOH)]D[Phe(3-Me)]V[Bip]I[Orn][dL][Dab]LVTC-NH2; thioether N-14)
5 | 7.04 | Cc1cccc(C[C@@H]2NC(=O)[C@H](CC(=O)O)NC(=O)[C@H](Cc3ccc(C(=O)O)cc3)NC(=O)[C@H](Cc3ccc(OCC(=O)O)cc3)NC(=O)CSC[C@@H](C(N)=O)NC(=O)[C@H]([C@@H](C)O)NC(=O)[C@H](C(C)C)NC(=O)[C@H](CC(C)C)NC(=O)[C@H](CCN)NC(=O)[C@@H](CC(C)C)NC(=O)[C@H](CCCN)NC(=O)[C@H](CCC(=O)O)NC(=O)[C@H](Cc3ccc(-c4ccccc4)cc3)NC(=O)[C@H](C(C)C)NC2=O)c1 [Compound 1556] ({CH2CO}-Y(Carboxymethyl)[Phe(4-COOH)]D[Phe(3-Me)]V[Bip]E[Orn][dL][Dab]LVTC-NH2; thioether N-14)
6 | 7.42 | Cc1cccc(C[C@@H]2NC(=O)[C@H](CC(=O)O)NC(=O)[C@H](Cc3ccc(C(=O)O)cc3)NC(=O)[C@H](Cc3ccc(OCC(=O)O)cc3)NC(=O)CSC[C@@H](C(N)=O)NC(=O)[C@H]([C@@H](C)O)NC(=O)[C@H](C(C)C)NC(=O)[C@H](CC(C)C)NC(=O)[C@H](CCN)NC(=O)[C@@H](CC(C)C)NC(=O)[C@H](CCCN)NC(=O)[C@H](CCCNC(N)=O)NC(=O)[C@H](Cc3ccc(-c4ccccc4)cc3)NC(=O)[C@H](C(C)C)NC2=O)c1 [Compound 1557] ({CH2CO}-Y(Carboxymethyl)[Phe(4-COOH)]D[Phe(3-Me)]V[Bip][Cit][Orn][dL][Dab]LVTC-NH2; thioether N-14)
7 | 7.79 | CC[C@H](C)[C@@H]1NC(=O)[C@H](Cc2ccc(-c3ccccc3)cc2)NC(=O)[C@H](C(C)C)NC(=O)[C@H](Cc2cccc(C)c2)NC(=O)[C@H](CC(=O)O)NC(=O)[C@H](Cc2ccncc2)NC(=O)[C@H](CN)NC(=O)CSC[C@@H](C(=O)N[C@@H](C)C(N)=O)NC(=O)[C@H]([C@@H](C)O)NC(=O)[C@H](C(C)C)NC(=O)[C@H](CC2CCCCC2)NC(=O)[C@H](CCN)NC(=O)[C@@H](CC(C)C)NC(=O)[C@H](CCCN)NC1=O [Compound 1561]
8 | 7.69 | CC[C@H](C)[C@@H]1NC(=O)[C@H](Cc2ccc(-c3ccccc3)cc2)NC(=O)[C@H](C(C)C)NC(=O)[C@H](Cc2cccc(Cl)c2)NC(=O)[C@H](CC(=O)O)NC(=O)[C@H](Cc2ccncc2)NC(=O)[C@H](CN)NC(=O)CSC[C@@H](C(=O)N[C@@H](C)C(N)=O)NC(=O)[C@H]([C@@H](C)O)NC(=O)[C@H](C(C)C)NC(=O)[C@H](CC2CCCCC2)NC(=O)[C@H](CCN)NC(=O)[C@@H](CC(C)C)NC(=O)[C@H](CCCN)NC1=O [Compound 1562]
9 | 7.97 | CC[C@H](C)[C@@H]1NC(=O)[C@H](Cc2ccc(-c3ccccc3)cc2)NC(=O)[C@H](C(C)C)NC(=O)[C@H](Cc2cccc(OC)c2)NC(=O)[C@H](CC(=O)O)NC(=O)[C@H](Cc2ccncc2)NC(=O)[C@H](CN)NC(=O)CSC[C@@H](C(=O)N[C@@H](C)C(N)=O)NC(=O)[C@H]([C@@H](C)O)NC(=O)[C@H](C(C)C)NC(=O)[C@H](CC2CCCCC2)NC(=O)[C@H](CCN)NC(=O)[C@@H](CC(C)C)NC(=O)[C@H](CCCN)NC1=O [Compound 1563]
10 | 7.44 | CC[C@H](C)[C@@H]1NC(=O)[C@H](Cc2ccc(-c3ccccc3)cc2)NC(=O)[C@H](C(C)C)NC(=O)[C@H](Cc2cccc(C(F)(F)F)c2)NC(=O)[C@H](CC(=O)O)NC(=O)[C@H](Cc2ccncc2)NC(=O)[C@H](CN)NC(=O)CSC[C@@H](C(=O)N[C@@H](C)C(N)=O)NC(=O)[C@H]([C@@H](C)O)NC(=O)[C@H](C(C)C)NC(=O)[C@H](CC2CCCCC2)NC(=O)[C@H](CCN)NC(=O)[C@@H](CC(C)C)NC(=O)[C@H](CCCN)NC1=O [Compound 1564] ({CH2CO}-[Dap][4Pal]D[Phe(3-CF3)]V[Bip]I[Orn][dL][Dab][Cha]VTCA-NH2; thioether N-14)
11 | 7.79 | CC(C)C[C@H]1NC(=O)[C@H](CCCN)NC(=O)[C@H](C(C)C)NC(=O)[C@H](Cc2ccc(-c3ccccc3)cc2)NC(=O)[C@H](C(C)C)NC(=O)[C@H](Cc2cccc(Cl)c2)NC(=O)[C@H](CC(=O)O)NC(=O)[C@H](Cc2ccc(C(=O)O)cc2)NC(=O)[C@H](Cc2ccc(OCC(=O)O)cc2)NC(=O)CSC[C@@H](C(=O)N[C@@H](C)C(N)=O)NC(=O)[C@H]([C@@H](C)O)NC(=O)[C@H](C(C)C)NC(=O)[C@H](CC2CCCCC2)NC(=O)[C@H](CCN)NC1=O [Compound 1569]
12 | 7.74 | CC(C)C[C@H]1NC(=O)[C@H](CCCN)NC(=O)[C@H](C(C)C)NC(=O)[C@H](Cc2ccc(-c3ccccc3)cc2)NC(=O)[C@H](C(C)C)NC(=O)[C@H](Cc2cccc(Cl)c2)NC(=O)[C@H](CC(=O)O)NC(=O)[C@H](Cc2ccncc2)NC(=O)[C@H](Cc2ccc(OCC(=O)O)cc2)NC(=O)CSC[C@@H](C(=O)N[C@@H](C)C(N)=O)NC(=O)[C@H]([C@@H](C)O)NC(=O)[C@H](C(C)C)NC(=O)[C@H](CC2CCCCC2)NC(=O)[C@H](CCN)NC1=O [Compound 1570] ({CH2CO}-Y(Carboxymethyl)[4Pal]D[Phe(3-Cl)]V[Bip]V[Orn][dL][Dab][Cha]VTCA-NH2; thioether N-14)
13 | 7.77 | CC(C)C[C@H]1NC(=O)[C@H](CCCN)NC(=O)[C@H](C(C)C)NC(=O)[C@H](Cc2ccc(-c3ccccc3)cc2)NC(=O)[C@H](C(C)C)NC(=O)[C@H](Cc2cccc(C(F)(F)F)c2)NC(=O)[C@H](CC(=O)O)NC(=O)[C@H](Cc2ccc(C(=O)O)cc2)NC(=O)[C@H](Cc2ccc(OCC(=O)O)cc2)NC(=O)CSC[C@@H](C(=O)N[C@@H](C)C(N)=O)NC(=O)[C@H]([C@@H](C)O)NC(=O)[C@H](C(C)C)NC(=O)[C@H](CC2CCCCC2)NC(=O)[C@H](CCN)NC1=O [Compound 1571]
14 | 7.76 | Cc1cccc(C[C@@H]2NC(=O)[C@H](CC(=O)O)NC(=O)[C@H](Cc3ccc(OCC(=O)O)cc3)NC(=O)[C@H](Cc3ccc(OCC(=O)O)cc3)NC(=O)CSC[C@@H](C(=O)N[C@@H](C)C(N)=O)NC(=O)[C@H]([C@@H](C)O)NC(=O)[C@H](C(C)C)NC(=O)[C@H](CC3CCCCC3)NC(=O)[C@H](CCN)NC(=O)[C@@H](CC(C)C)NC(=O)[C@H](CCCN)NC(=O)[C@H](C(C)C)NC(=O)[C@H](Cc3ccc(-c4ccccc4)cc3)NC(=O)[C@H](C(C)C)NC2=O)c1 [Compound 1572]
15 | 7.74 | CC(C)C[C@H]1NC(=O)[C@H](CCCN)NC(=O)[C@H](C(C)C)NC(=O)[C@H](Cc2ccc(-c3ccccc3)cc2)NC(=O)[C@H](C(C)C)NC(=O)[C@H](Cc2cccc(Cl)c2)NC(=O)[C@H](CC(=O)O)NC(=O)[C@H](Cc2ccc(OCC(=O)O)cc2)NC(=O)[C@H](Cc2ccc(OCC(=O)O)cc2)NC(=O)CSC[C@@H](C(=O)N[C@@H](C)C(N)=O)NC(=O)[C@H]([C@@H](C)O)NC(=O)[C@H](C(C)C)NC(=O)[C@H](CC2CCCCC2)NC(=O)[C@H](CCN)NC1=O [Compound 1573]
16 | 7.52 | CC(C)C[C@H]1NC(=O)[C@H](CCCN)NC(=O)[C@H](C(C)C)NC(=O)[C@H](Cc2ccc(-c3ccccc3)cc2)NC(=O)[C@H](C(C)C)NC(=O)[C@H](Cc2cccc(C(F)(F)F)c2)NC(=O)[C@H](CC(=O)O)NC(=O)[C@H](Cc2ccc(OCC(=O)O)cc2)NC(=O)[C@H](Cc2ccc(OCC(=O)O)cc2)NC(=O)CSC[C@@H](C(=O)N[C@@H](C)C(N)=O)NC(=O)[C@H]([C@@H](C)O)NC(=O)[C@H](C(C)C)NC(=O)[C@H](CC2CCCCC2)NC(=O)[C@H](CCN)NC1=O [Compound 1574]
17 | 7.78 | CC(C)C[C@H]1NC(=O)[C@H](CCCN)NC(=O)[C@H](C(C)C)NC(=O)[C@H](Cc2ccc(-c3ccccc3)cc2)NC(=O)[C@H](C(C)C)NC(=O)[C@H](Cc2cccc(Cl)c2)NC(=O)[C@H](CC(=O)O)NC(=O)[C@H](Cc2ccc(OCC(=O)O)cc2)NC(=O)[C@H](Cc2ccncc2)NC(=O)CSC[C@@H](C(=O)N[C@@H](C)C(N)=O)NC(=O)[C@H]([C@@H](C)O)NC(=O)[C@H](C(C)C)NC(=O)[C@H](CC2CCCCC2)NC(=O)[C@H](CCN)NC1=O [Compound 1575]

Reference: patent publication US20250163104A1, “MACROCYCLIC IMMUNOMODULATORS” (priority 2021, published 2025)
